Test results from patent publication US20260263497A1, “METHOD OF TREATING SCHIZOPHRENIA AND COMPOSITION FOR USE THEREIN” (Academia Sinica, priority 2022, published 2026).

Key:
Assay type in all cases: in vivo, mice (C57BL/6)
[1] = tested on: METH-induced hyperlocomotion in METH-naïve wild-type mice; test: METH-induced hyperlocomotor activity (METH-induced behavioral sensitization, open field); conditions: for effect on METH-induced hyperlocomotion activity, total travelled distance: i.p. co-injection 0.3, 1, 3 mg/kg with METH 2 mg/kg, 60 minutes, FIG. 2
Protocol: (§1) Animals: Male mice (C57BL/6; 2-3 months) were purchased from and maintained in the animal facility of National Taiwan University (Taipei, Taiwan) under standard condition with a 12-hr light/12-hr dark cycle. All animal experimental procedures were performed in accordance with the guidelines established by the Institutional Animal Care and Use Committee (IACUC) of the National Taiwan University and Institute of Biomedical Sciences (IBMS) at Academia Sinica (Taipei, Taiwan).
(§2) The locomotor activity: The locomotor activity was monitored and recorded using SMART 3.0 video tracking software (Panlab Harvard Apparatus, Barcelona, Spain) for 1 hour following the manufacture's protocol.
Methamphetamine (METH) is a dopamine enhancer that elevates synaptic dopamine in the brain and is frequently used to induce schizophrenia-like behaviors in mice.^6 Thus, METH-induced psychosis mice was used to evaluate the in vivo efficacy of JMF3464.
Male METH-naïve wild-type (WT) mice (3-6 months old) received intraperitoneal co-injections of JMF3464 (0.3, 1, or 3 mg/kg) and METH (2 mg/kg) immediately after establishing a 20-minute baseline for locomotor activity. The locomotor activity was recorded for 60 minutes after injection. A saline+vehicle group and a METH+vehicle group are used as control groups. In addition, under the same experimental conditions as JMF3464, the compound CGS21680 (A2A receptor agonist) with potential for treating schizophrenia was used as a comparison. The resulted data was expressed and analyzed as one-way ANOVA of total travelled distance (see FIG. 2) and two-way ANOVA of distance by 5-minute time bin (see FIGS. 3A and 3B) and.
as §1, with “IACUC” for “Institutional Animal Care and Use Committee (IACUC)”, “IBMS” for “Institute of Biomedical Sciences (IBMS)”
Male METH-naïve wild-type (WT) mice (3-6 months old) received intraperitoneal co-injections of JMF1907 (1 mg/kg) and METH (2 mg/kg) immediately after establishing a 20-minute baseline for locomotor activity. The locomotor activity was recorded for 60 minutes after injection. In this study, a saline+vehicle (5% DMSO) group and a METH+vehicle (5% DMSO) group are used as control groups. In addition, the compound JMF3464 described above, and the compound S-(4-Nitrobenzyl)-6-thioinosine (NBTI), known as an inhibitor of equilibrative nucleoside transporter 1 (ENTi) transporter, are used as comparative examples with the same experimental conditions as JMF1907. The resulted data was expressed and analyzed as one-way ANOVA of total travelled distance (see FIG. 5) and two-way ANOVA of distance by 5-minute time bin (see FIG. 6).

[2] = tested on: locomotor activity of drug-naïve WT mice; test: Effect of JMF3464 alone on locomotor activity; conditions: single i.p. injection 0.3, 0.5, 1, 3 mg/kg
Protocol: as §1, §2
Male drug-naïve WT mice (3-6 months old) received a single dose JMF3464 injection (0.3, 0.5, 1, and 3 mg/kg, respectively) via intraperitoneal injection and the locomotor activity was recorded immediately after injection. A vehicle group is used as control group. The data were expressed and analyzed as one-way ANOVA of total travelled distance for 60 minutes (see FIG. 1A) and two-way ANOVA of distance by 5-minute time bin (see FIG. 1B).

[3] = tested on: METH-induced CPP in mice; test: METH-induced conditioned place preference (CPP)
Protocol: as §1
The METH-induced conditioned place preference (CPP) task is further performed to examine the therapeutic effect of JMF3464 on METH-induced addiction.
The METH-induced CPP procedure is shown as follows. The conditioned place preference (CPP) paradigm is a standard preclinical behavioral model used to study the rewarding and aversive effects of drugs. The paradigm usually uses a two-compartment apparatus with each compartment displaying distinct contextual characteristics (e.g., wall colors/patterns and floor texture). The CPP model consisted of three phases: pre-conditioning (baseline), conditioning, and post-conditioning (i.e., CPP test). […] Lastly, one day after the conditioning sessions, mice underwent a CPP test where they were again given free access to all compartments for 15 minutes and the time spent in the METH-paired side was measured, which provided a measure of CPP expression.

## CCNC(=O)[C@H]1O[C@@H](n2cnc3c(N)nc(NCCc4ccc(CCC(=O)O)cc4)nc32)[C@H](O)[C@@H]1O [CGS21680, reference compound]
[1]
  effect on METH-induced hyperlocomotion activity, total travelled distance: dose-dependently suppressed

## OC[C@H]1O[C@@H](n2cnc3c(NCCc4c[nH]c5ccccc45)ncnc32)C(O)C1O (some centres unmarked) [JMF1907]
[1]; 1 mg/kg i.p. co-injection with METH 2 mg/kg, open field 60 minutes, FIG. 6
  improvement of METH-induced hyperactive behavior, five-minute intervals: comparable to the control group
[1]; 1 mg/kg i.p. co-injection with METH 2 mg/kg, open field 60 minutes, vehicle 5% DMSO, compared to JMF3464 and NBTI, FIG. 5
  effect on METH-induced hyperactive behavior, overall locomotion: significantly improves

## OC[C@H]1O[C@@H](n2cnc3c(NCc4ccc(Br)s4)ncnc32)[C@H](O)[C@@H]1O [JMF3464, N6-[(5-bromothien-2-yl)methyl]adenosine]
[2]; 60 minutes
  effect on locomotor activity: dose-dependent effect
[2]; total travelled distance 60 minutes, vs vehicle
  reduction of total locomotor activity: ~ 20%
[3]; 1 mg/kg i.p. 10 minutes before each METH conditioning session, FIG. 4A
  inhibitory effect on METH-induced CPP: neither 1 mg/kg nor 3 mg/kg of JMF3464 exerted inhibitory effect
[3]; 3 mg/kg i.p. 10 minutes before each METH conditioning session, FIG. 4B
  inhibitory effect on METH-induced CPP: neither 1 mg/kg nor 3 mg/kg of JMF3464 exerted inhibitory effect
[1]; 3 mg/kg i.p. co-injection with METH 2 mg/kg, vs METH+vehicle, FIGS. 3A, 3B
  effect on METH-induced locomotion activity, 5-minute time bins: significantly lowered
[1]
  effect on METH-induced hyperlocomotion activity, total travelled distance: dose-dependently suppressed
[1]; repeated use, no further conditions given
  effect on METH-induced behavioral sensitization after repeated use: no effect

## CN[C@@H](C)Cc1ccccc1 [METH, Methamphetamine]
[1]; METH 2 mg/kg i.p. + vehicle vs saline+vehicle, total travelled distance 60 minutes
  hyperlocomotion induced by METH: approximately 200%
